Measurements taken from article PMC11681159, “Bee pollen peptides as potent tyrosinase inhibitors with anti-melanogenesis effects in murine b16f10 melanoma cells and zebrafish embryos” (Scientific Reports, 2024).

Key:
[1] = tested on: TYR; conditions: cited from earlier work
Text: TIPs are now widely prepared via enzymatic hydrolysis, due to the ease of controlling the process and the absence of extreme reaction conditions. There are many commercially produced enzymes which are available to support TIP production, among which are trypsin, chymotrypsin, flavourzyme, alkaline protease, neutral protease, papain, and so forth. It is understood that different enzymes can differ in their hydrolytic impact upon a given material because the binding specificity between substrate and enzymes will vary. […] Further fractionation of the MW < 0.65 kDa ultrafiltrated fraction can be carried out by SEC using a Superdex 30 Increase column with a separation range of 100-7,000 Da. […] Where hydrophobic amino acids appear at each end of the peptide chain, this increases the interactivity with the copper active sites of TYR. Furthermore, it was reported by Wang et al.[33]. that a low-molecular-weight (700-1,700 Da) gelatin hydrolysate derived from the sea cucumber wall offered 55.7% hydrophobic amino acids. While the exterior environme ... || (+ 2 further places)

[2] = tested on: A375 melanoma cells; conditions: 0.5-1 mM; cited from earlier work
[3] = tested on: mushroom TYR; design: method as in PMID 19440221; conditions: cited from earlier work
Text: Abu Ubeid et al.[51]. conducted the screening of an internal library to identify the active oligopeptides capable of inhibiting TYR in mushrooms.

[4] = target: TYR (mono-phenolase); conditions: cited from earlier work
Text: In order to check our own hypothesis concerning the ability of the peptide VY-9 to inhibit TYR, we created a synthetic peptide with a matching sequence to test the inhibition in the case of both mono-phenolase and di-phenolase forms. […] Ge et al.[34]. noting that hydrophobic interactions with hydrophobic side chains located at the active sites of TYR could be increased by inhibitors which have aromatic ring structures. […] For instance, Schurink et al.[38]. performed the screening of seven different peptides offering TYR inhibition from protein ... || In order to understand the VY-9 peptide mechanism for TYR inhibition, the inhibition mode was investigated through the analysis of Lineweaver-Burk plots. The plots can be seen in Fig. 3a-d, where four lines of differing gradients meet at the same intersection point for the vertical coordinate at varying concentrations of the VY-9 peptide.

[5] = presence of water or oxygen; cited from earlier work
Text: (§1) One role of TYR, which is a binuclear copper enzyme, is to regulate melanogenesis. It acts as a catalyst for the hydroxylation of tyrosine and the oxidation of 3, 4-dihydroxyphenylalanine (L-DOPA) to o-dopaquinone which are the rate limiting reactions which occur during the synthesis of melanin. Skin color is dependent upon the level of melanin synthesis as well as the type of melanin and the way it is distributed through the keratinocytes. Achieving effective inhibition of TYR with minimal adverse side effects has remained a longstanding challenge within the realms of dermatological and cosme ...

[6] = tested on: cells; conditions: cited from earlier work
Text: as §1

[7] = tested on: human TYR; design: method as in PMID 19440221; conditions: cited from earlier work
[8] = tested on: human melanocytes; design: method as in PMID 19440221; conditions: 100 µM, seven days; cited from earlier work
[9] = tested on: skin; conditions: treatment of hyperpigmentation; cited from earlier work
Text: In producing cosmetic products and functional foods, safety is of the highest priority during the formulation process.

[10] = tested on: TYR (di-phenolase); conditions: cited from earlier work
Text: In order to check our own hypothesis concerning the ability of the peptide VY-9 to inhibit TYR, we created a synthetic peptide with a matching sequence to test the inhibition in the case of both mono-phenolase and di-phenolase forms. […] The plots can be seen in Fig. 3a-d, where four lines of differing gradients meet at the same intersection point for the vertical coordinate at varying concentrations of the VY-9 peptide.

[11] = tested on: zebrafish embryos; experiment: Melanin inhibitory assay in zebrafish embryos; format: in vivo; conditions: PTU 0.0015%, vs control
Description: To perform the test of acute toxicity, a total of 20 fertilized zebrafish embryos were collected at around 4 h after fertilization and added to each well in a 12-well plate. These embryos then underwent treatment using different quantities of […] (2, 4, 6, 8, and 10 µM), while the negative control was distilled water and the positive control was 3,4-dichloroaniline. Incubation of the plate then took place until 48 h after fertilization at a temperature of 28.5 ± 1 °C. The test solutions were refreshed at 24 h after fertilization to allow the counting and removal of any dead embryos. Following exposure, a stereomicroscope (SZX16, Olympus, Japan) was used to record the embryo morphological effects. Meanwhile, a slightly modified version of a previously described melanin inhibitory assay was carried out[30]. The embryos were then homogenized using a cold lysis buffer (PBS pH 7.4, 1% Triton-X and 1% DMSF). The lysate then underwent 10 min of sonication before being placed in a centrifuge for 5 min at 10,000×g. The pellet was then removed from the centrifuge and dissolved in 200 µL of 1 N NaOH for 1 h at a temperature of 85 °C. This sample was subsequently vortexed and placed in the centrifuge for a further 5 min at 10,000×g. A microplate reader (Spectramax M5, Molecular Devices, USA) was then employed to determine the supernatant absorbance at 490 nm. Melanin content levels could then by calibrated by using the protein amount, and were reported in the form of a percentage compared to the untreated control. In the melanin inhibitory assay, the positive control used was phenylthiourea (PTU) solution (0.0015%).

[12] = tested on: B16F10 melanoma cells; experiment: Melanin content assay in B16F10 cells; format: cell-based, mouse; conditions: arbutin 0.2 mM, 48 h, 405 nm
Description: In order to assess melanin content, culture flasks were used to grow B16F10 cells (1 × 10^5 cells/flask) for 24 h. […] Cell harvesting was conducted by trypsinization and the cells were then rinsed twice in cold PBS. The cell pellets were then dissolved in 0.3 mL of 1 N NaOH to produce solutions which were heated to 90 °C for a one-hour period. The lysates were then placed in a centrifuge for 10 min at 3,000 × g whereupon a microplate reader was used to assess the melanin quantity at 405 nm. The protein content in the supernatant was evaluated using the Bradford protein assay with the findings presented in the form of a percentage of the control. Arbutin (0.2 mM) served as the positive control. Each trial was carried out in triplicate, with results presented in the form of mean ± standard deviation.

[13] = tested on: melanoma cells; conditions: 500 µM; cited from earlier work

ECGYF
TYR inhibition vs arbutin and glutathione [1]: exceeded those of arbutin and glutathione | IC50 ([1]; read-out: TYR inhibition IC50): 460 µM | melanin level in A375 cells [2]: able to lower the melanin levels in cultured A375 melanoma cells more effectively than arbutin or glutathione

SFLLRN [oligopeptide of an internal library]
IC50 [3]: 8000 µM

IIPFIF
IC50 against TYR [1]: 6160 µg/mL

MRSRERSSWY [TH10]
IC50 ([4]; read-out: IC50 (tyrosine substrate of TYR)): 102 µM

O=S(O)O [sulfite]
stability [5]: instability in the presence of water or oxygen | toxicity towards cells [6]: high degree of toxicity towards cells

ILFTLL
IC50 against TYR [1]: 9250 µg/mL

RADSRADC [oligopeptide of an internal library]
IC50 [3]: 123 µM | human TYR inhibition vs hydroquinone [7]: to a greater extent than was the case with hydroquinone | reduction in melanin content [8]: 27%

GYSLGNWVCAAK [obtained from egg white protein]
inhibition type [1]: competitively inhibit TYR

Oc1ccc(O)cc1 [hydroquinone]
IC50 [3]: 680 µM | undesirable side effects [9]: contact dermatitis, irritation of the skin, and exogenous ochronosis

HGGEGGRPY [CT-1, rice bran protein hydrolysate peptide]
TYR inhibition, mono-phenolase tyrosine substrate reaction [4]: notable TYR inhibition | TYR inhibition, di-phenolase L-DOPA substrate reaction [10]: did not do so in the di-phenolase L-DOPA substrate reaction

NC(=S)Nc1ccccc1 [PTU, phenylthiourea, reference compound]
melanin content [11]: differed significantly (p < 0.01) to the control

IQSPHFF [from Phage Display Library]
Ki ([10]; competitive): 765 µM | inhibition type ([10]; di-phenolase): competitive inhibitor

O=c1cc(CO)occ1O [kojic acid]
stability [5]: instability in the presence of water or oxygen | toxicity towards cells [6]: high degree of toxicity towards cells

OC[C@H]1O[C@@H](Oc2ccc(O)cc2)[C@H](O)[C@@H](O)[C@@H]1O [arbutin, reference compound]
reduction in melanin content [12]: 54.34%

TIPPPT
IC50 against TYR [1]: 7590 µg/mL

LQPSHY [CT-2, rice bran protein hydrolysate peptide]
TYR inhibition, mono-phenolase tyrosine substrate reaction [4]: notable TYR inhibition | TYR inhibition, di-phenolase L-DOPA substrate reaction [10]: did not do so in the di-phenolase L-DOPA substrate reaction | cytotoxic effects [13]: no cytotoxic effects were recorded | melanogenesis inhibition [13]: > 50%

KFEKKFEK [oligopeptide of an internal library]
IC50 [3]: 3600 µM

YRSRKYSSWY [P4, peptide from an earlier study]
IC50 [3]: 40 µM | human TYR inhibition vs hydroquinone [7]: to a greater extent than was the case with hydroquinone | reduction in melanin content [8]: 43%

HPTSEVY [CT-3, rice bran protein hydrolysate peptide]
TYR inhibition, mono-phenolase tyrosine substrate reaction [4]: notable TYR inhibition | TYR inhibition, di-phenolase L-DOPA substrate reaction [10]: did not do so in the di-phenolase L-DOPA substrate reaction
